# Source: patent US12187728B2 (Raze Therapeutics, Inc., priority 2015, dated 2025)
# Biological target: T1, Human MTHFD2 (Homo sapiens, UniProt P13995)
# T1 construct: residues 36-350 in Uniport ID P13995; His6 (N); made in house; host or cells: E. coli
# T1 sequence (P13995 36-350): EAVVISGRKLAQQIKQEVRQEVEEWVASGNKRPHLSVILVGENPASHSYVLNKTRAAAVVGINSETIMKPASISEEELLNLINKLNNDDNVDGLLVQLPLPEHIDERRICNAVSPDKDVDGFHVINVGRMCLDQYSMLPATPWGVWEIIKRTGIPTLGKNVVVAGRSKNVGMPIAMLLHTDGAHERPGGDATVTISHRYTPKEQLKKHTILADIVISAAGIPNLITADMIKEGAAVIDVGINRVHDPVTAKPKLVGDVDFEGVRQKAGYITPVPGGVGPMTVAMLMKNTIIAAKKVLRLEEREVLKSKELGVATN
# Test: MTHFD2 Activity Assay (dehydrogenase activity, diaphorase/resazurin coupled fluorescence)
# Assay type: biochemical
# Details: inhibitory activity (IC50 and/or binding constant); 0.2 nM MTHFD2, 11 concentrations
# Procedure, shortened: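 His6-tagged MTHFD2 (res. 36-350), E. coli-expressed, at 0.2 nM preincubated with compound 15 min in Hepes pH 8.0/MgCl2/KH2PO4 buffer; 70 μM CH2-THF, 1 mM NAD+ added with resazurin/diaphorase, 30 min, EDTA stop. Resorufin fluorescence (ex 525/em 598); IC50 from 11-point 4-parameter fit.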
row,SMILES,IC50 [µM]
1,"Cn1c(NCCCO)nc2c1c(=O)n(Cc1ccc(Cl)c(F)c1)c(=O)n2C [Example 23, 1-[(4-chloro-3-fluorophenyl)methyl]-8-[(3-hydroxypropyl)amino]-3,7-dimethyl-2,3,6,7-tetrahydro-1H-purine-2,6-dione]",1 to 5
2,"C[C@@H](O)CNc1nc2c(c(=O)n(Cc3ccc(Cl)c(F)c3)c(=O)n2C)n1C [Example 24, 1-[(4-chloro-3-fluorophenyl)methyl]-8-{[(2R)-2-hydroxypropyl]amino}-3,7-dimethyl-2,3,6,7-tetrahydro-1H-purine-2,6-dione]",5 to 10
3,"C[C@H](O)CNc1nc2c(c(=O)n(Cc3ccc(Cl)c(F)c3)c(=O)n2C)n1C [Example 25, 1-[(4-chloro-3-fluorophenyl)methyl]-8-{[(2S)-2-hydroxypropyl]amino}-3,7-dimethyl-2,3,6,7-tetrahydro-1H-purine-2,6-dione]",1 to 5
4,"C[C@H](CCO)Nc1nc2c(c(=O)n(Cc3ccc(Cl)cc3)c(=O)n2C)n1C [Example 26, 1-[(4-chlorophenyl)methyl]-8-{[(2R)-4-hydroxybutan-2-yl]amino}-3,7-dimethyl-2,3,6,7-tetrahydro-1H-purine-2,6-dione]",1 to 5
5,"C[C@H](CCO)Nc1nc2c(c(=O)n(Cc3ccc(Cl)c(Cl)c3)c(=O)n2C)n1C [Example 27, 1-[(3,4-dichlorophenyl)methyl]-8-{[(2R)-4-hydroxybutan-2-yl]amino}-3,7-dimethyl-2,3,6,7-tetrahydro-1H-purine-2,6-dione]",0.01 to 1
6,"Cn1c(NCCCCO)nc2c1c(=O)n(Cc1ccc(Cl)c(Cl)c1)c(=O)n2C [Example 28, 1-[(3,4-dichlorophenyl)methyl]-8-[(4-hydroxybutyl)amino]-3,7-dimethyl-2,3,6,7-tetrahydro-1H-purine-2,6-dione]",0.01 to 1
7,"Cn1c(NCCCO)nc2c1c(=O)n(Cc1ccc(F)c(F)c1)c(=O)n2C [Example 29, 1-[(3,4-difluorophenyl)methyl]-8-[(3-hydroxypropyl)amino]-3,7-dimethyl-2,3,6,7-tetrahydro-1H-purine-2,6-dione]",> 10
8,"C[C@H](O)CNc1nc2c(c(=O)n(Cc3ccc(F)c(F)c3)c(=O)n2C)n1C [Example 30, 1-[(3,4-difluorophenyl)methyl]-8-{[(2S)-2-hydroxypropyl]amino}-3,7-dimethyl-2,3,6,7-tetrahydro-1H-purine-2,6-dione]",> 10
9,"C[C@@H](CCO)Nc1nc2c(c(=O)n(Cc3ccc(Cl)cc3)c(=O)n2C)n1C [Example 31, 1-[(4-chlorophenyl)methyl]-8-{[(2S)-4-hydroxybutan-2-yl]amino}-3,7-dimethyl-2,3,6,7-tetrahydro-1H-purine-2,6-dione]",1 to 5
10,"C[C@@H](CCO)Nc1nc2c(c(=O)n(Cc3ccc(Cl)c(Cl)c3)c(=O)n2C)n1C [Example 32, 1-[(3,4-dichlorophenyl)methyl]-8-{[(2S)-4-hydroxybutan-2-yl]amino}-3,7-dimethyl-2,3,6,7-tetrahydro-1H-purine-2,6-dione]",0.01 to 1
11,"Cn1c(NC2CCCC(O)C2)nc2c1c(=O)n(Cc1ccc(Cl)c(Cl)c1)c(=O)n2C (stereo not shown) [Example 33, 1-[(3,4-dichlorophenyl)methyl]-8-[(3-hydroxycyclohexyl)amino]-3,7-dimethyl-2,3,6,7-tetrahydro-1H-purine-2,6-dione]",0.01 to 1
12,"COc1ccc(Cn2c(=O)c3c(nc(NC[C@H](C)O)n3C)n(C)c2=O)cc1 [Example 34, 8-{[(2S)-2-hydroxypropyl]amino}-1-[(4-methoxyphenyl)methyl]-3,7-dimethyl-2,3,6,7-tetrahydro-1H-purine-2,6-dione]",> 10
13,"Cn1c(NC2CCNCC2)nc2c1c(=O)n(Cc1ccc(Cl)c(Cl)c1)c(=O)n2C [Example 35, 1-[(3,4-dichlorophenyl)methyl]-3,7-dimethyl-8-[(piperidin-4-yl)amino]-2,3,6,7-tetrahydro-1H-purine-2,6-dione]",1 to 5
14,"C[C@H](O)CNc1nc2c(c(=O)n(Cc3ccc(C(F)(F)F)cc3)c(=O)n2C)n1C [Example 36, 8-{[(2S)-2-hydroxypropyl]amino}-3,7-dimethyl-1-{[4-(trifluoromethyl)phenyl]methyl}-2,3,6,7-tetrahydro-1H-purine-2,6-dione]",5 to 10
15,"Cn1c(NCCC(=O)O)nc2c1c(=O)n(Cc1ccc(Cl)c(Cl)c1)c(=O)n2C [Example 37, 3-({1-[(3,4-dichlorophenyl)methyl]-3,7-dimethyl-2,6-dioxo-2,3,6,7-tetrahydro-1H-purin-8-yl}amino)propanoic acid]",0.01 to 1
16,"Cn1c(N[C@H]2CC[C@H](N)CC2)nc2c1c(=O)n(Cc1ccc(Cl)c(Cl)c1)c(=O)n2C [Example 38, (±)-1-[(3,4-dichlorophenyl)methyl]-3,7-dimethyl-8-{[(trans)-4-aminocyclohexyl]amino}-2,3,6,7-tetrahydro-1H-purine-2,6-dione]",1 to 5

row,SMILES,IC50 [µM]
1,"Cn1c(N[C@H]2CC[C@@H](N)CC2)nc2c1c(=O)n(Cc1ccc(Cl)c(Cl)c1)c(=O)n2C [Example 39, (±)-1-[(3,4-dichlorophenyl)methyl]-3,7-dimethyl-8-{[(cis)-4-aminocyclohexyl]amino}-2,3,6,7-tetrahydro-1H-purine-2,6-dione]",1 to 5
2,"CN(C)CCNc1nc2c(c(=O)n(Cc3ccc(Cl)c(Cl)c3)c(=O)n2C)n1C [Example 40, 1-[(3,4-dichlorophenyl)methyl]-8-{[2-(dimethylamino)ethyl]amino}-3,7-dimethyl-2,3,6,7-tetrahydro-1H-purine-2,6-dione]",1 to 5
3,"Cn1c(NCc2cn[nH]c2)nc2c1c(=O)n(Cc1ccc(Cl)c(Cl)c1)c(=O)n2C [Example 42, 1-[(3,4-dichlorophenyl)methyl]-3,7-dimethyl-8-[(1H-pyrazol-4-ylmethyl)amino]-2,3,6,7-tetrahydro-1H-purine-2,6-dione]",1 to 5
4,"Cn1c(NCCC(C)(C)O)nc2c1c(=O)n(Cc1ccc(Cl)c(Cl)c1)c(=O)n2C [Example 45, 1-[(3,4-dichlorophenyl)methyl]-8-[(3-hydroxy-3-methylbutyl)amino]-3,7-dimethyl-2,3,6,7-tetrahydro-1H-purine-2,6-dione]",0.01 to 1
5,"Cn1c(N[C@H]2CCCOC2)nc2c1c(=O)n(Cc1ccc(Cl)c(Cl)c1)c(=O)n2C [Example 46, 1-[(3,4-dichlorophenyl)methyl]-3,7-dimethyl-8-{[(3S)-oxan-3-yl]amino}-2,3,6,7-tetrahydro-1H-purine-2,6-dione]",0.01 to 1
6,"Cn1c(N[C@@H]2CCCOC2)nc2c1c(=O)n(Cc1ccc(Cl)c(Cl)c1)c(=O)n2C [Example 47, 1-[(3,4-dichlorophenyl)methyl]-3,7-dimethyl-8-{[(3R)-oxan-3-yl]amino}-2,3,6,7-tetrahydro-1H-purine-2,6-dione]",0.01 to 1
7,"Cn1c(NC2CCOCC2)nc2c1c(=O)n(Cc1ccc(Cl)c(Cl)c1)c(=O)n2C [Example 48, 1-[(3,4-dichlorophenyl)methyl]-3,7-dimethyl-8-[(oxan-4-yl)amino]-2,3,6,7-tetrahydro-1H-purine-2,6-dione]",0.01 to 1
8,"Cn1c(N[C@H]2CCOC2)nc2c1c(=O)n(Cc1ccc(Cl)c(Cl)c1)c(=O)n2C [Example 49, 1-[(3,4-dichlorophenyl)methyl]-3,7-dimethyl-8-{[(3S)-oxolan-3-yl]amino}-2,3,6,7-tetrahydro-1H-purine-2,6-dione]",0.01 to 1
9,"Cn1c(N[C@@H]2CC[C@H](C(=O)O)C2)nc2c1c(=O)n(Cc1ccc(Cl)c(Cl)c1)c(=O)n2C [Example 50, (1S,3R)-3-({1-[(3,4-dichlorophenyl)methyl]-3,7-dimethyl-2,6-dioxo-2,3,6,7-tetrahydro-1H-purin-8-yl}amino)cyclopentane-1-carboxylic acid]",0.01 to 1
10,"C[C@@H](CCO)Nc1nc2c(c(=O)n(Cc3ccc4sccc4c3)c(=O)n2C)n1C [Example 51, 1-(1-benzothiophen-5-ylmethyl)-8-{[(2S)-4-hydroxybutan-2-yl]amino}-3,7-dimethyl-2,3,6,7-tetrahydro-1H-purine-2,6-dione]",0.01 to 1
11,"Cn1c(NCCCO)nc2c1c(=O)n(Cc1ccc3sccc3c1)c(=O)n2C [Example 52, 1-(1-benzothiophen-5-ylmethyl)-8-[(3-hydroxypropyl)amino]-3,7-dimethyl-2,3,6,7-tetrahydro-1H-purine-2,6-dione]",0.01 to 1
12,"Cn1c(NC(CO)CO)nc2c1c(=O)n(Cc1ccc(Cl)c(Cl)c1)c(=O)n2C [Example 53, 1-[(3,4-dichlorophenyl)methyl]-8-[(1,3-dihydroxypropan-2-yl)amino]-3,7-dimethyl-2,3,6,7-tetrahydro-1H-purine-2,6-dione]",0.01 to 1
13,"Cn1c(NCCOCCO)nc2c1c(=O)n(Cc1ccc(Cl)c(Cl)c1)c(=O)n2C [Example 54, 1-[(3,4-dichlorophenyl)methyl]-8-{[2-(2-hydroxyethoxy)ethyl]amino}-3,7-dimethyl-2,3,6,7-tetrahydro-1H-purine-2,6-dione]",0.01 to 1
14,"Cn1c(NCCCO)nc2c1c(=O)n(Cc1ccc(C(F)(F)F)cc1)c(=O)n2C [Example 56, 8-[(3-hydroxypropyl)amino]-3,7-dimethyl-1-{[4-(trifluoromethyl)phenyl]methyl}-2,3,6,7-tetrahydro-1H-purine-2,6-dione]",5 to 10
15,"C[C@@H](O)CNc1nc2c(c(=O)n(Cc3ccc(C(F)(F)F)cc3)c(=O)n2C)n1C [Example 57, 8-{[(2R)-2-hydroxypropyl]amino}-3,7-dimethyl-1-{[4-(trifluoromethyl)phenyl]methyl}-2,3,6,7-tetrahydro-1H-purine-2,6-dione]",5 to 10
